Measured values taken from USRE43712E1, “Methods for assaying for antidepressant therapy markers” (The Board of Trustees of the Uniersity of Illinois, priority 2000, dated 2012).
“And” between values parts separate entries of the source, which are not always exact repeats. Equal values may be shown once. “Also recorded” adds a separate entry of the source. Marks after values point to notes of the source that are not given here.

How the values were obtained:
Gsα [1] = experiment: Cellular localization of Gsα in C6-2B cells, immunofluorescence laser scanning confocal microscopy; assay type: cell-based; settings: for Cells displaying intense Gsα staining at the process tips (and processes): control 64%
Protocol: C6-2B cells (between passages 30 and 50) were plated onto coverslips and allowed to attach overnight in Dulbecco's modified Eagle's medium. 4.5 g/l glucose, 10% bovine serum, and 100 μg/ml penicillin and streptomycin at 37° C. in a humidified 10% CO2 atmosphere. […] Therefore, the latter treatment paradigm was used in these experiments because it was easier to maintain the cell cultures for 3 days. […] The culture media and drug were changed daily. […] After the treatment duration, the cells were incubated in drug-free media for 45 to 60 minutes before fixation.
After treatment, cells were washed once with phosphate-buffered saline (PBS, […] NaCl, 2.6 mM KCl, 5.4 mM NaαPO4 7H2O, pH 7.4) and fixed with ice-cold methanol for 10 minutes. Cells were then washed three times with PBS followed by 2 h of blocking in 5% normal goat serum/0.2% fish skin gelatin in PBS. Primary antibody was added for 1.5 h, Gsα/RM1 (PerkinElmer Life Sciences, Boston, Mass.) 1:50 and Goα (Santa Cruz Biotechnology, Santa Cruz, Calif.) 2 μg/ml, followed by three washes with PBS. Oregon Green-labeled secondary antibody (Molecular Probes, Eugene, Oreg.) was added at a concentration of 8 μg/ml for 1 h followed by three PBS washes. The coverslips were mounted onto slides with Vectashield (Vector Laboratories. Burlingame, Calif.) containing diamidino-2-phenylindole as a mounting medium. Images were acquired using a Zeiss LSM510 laser-scanning confocal microscope (Carl Zeiss Inc., Thornwood, N.Y.). A single 488-nm beam from an argon/krypton laser was used for excitation of the Oregon Green. Differential interference contrast images were also acquired. Five experiments were performed and coverslips were examined. Approximately 2100 cells from control and desipramine-treated coverslips were counted by two investigators blind to the experimental conditions over the course of the five experiments.
The cellular distribution of Gsα was quantified in confocal imaged C6-2B cells using NIH-Image software (http://rsbinfonihpov/nih-image) as describe previously [Southwell et al., Cell Tissue Res., 292:37-45, 1998; Jenkinson et al., Br. J. Pharmacol., 126:131-136, 1999]. Images of 9×1 μm optical, planar sections taken from four randomly selected control and four randomly selected desipramine-treated cells were captured and the middle five sections from each cell were quantified. Total cellular Gsα fluorescence was measured by counting the number of pixels with intensity above threshold (determined by minimum intensity above background in this case 50 pixels). The areas of intensity were numbered and divided visually into those localized to the cell body and those localized to the processes and process tips. The total from each region was divided by the total cell pixel intensity and expressed as a percentage of the total. This was done for each section of each cell and the sections were averaged per cell to give an average percentage total per cell.
In a separate investigation, seven sets of 300 cells each from control group and desipramine-treated cells from five experiments were counted to determine the primary localization (processes and process tips or cell body) of Gsα within these cells. The majority of the cells stained positively for Gsα throughout the entire cell, but there was usually an enhancement in one of these regions. […] The counts are expressed as the ratio of process and process tip localization/cell body localization.
Studies were conducted to determine whether a shift in cellular localization of Gsα occurred in C6-2B cells subjected to antidepressants.
Twenty-one hundred cells from each group (control versus desipramine-treated) over a series of five experiments were examined to quantify the extent of the antidepressant effect. […] Abnormal cells or those not displaying processes were not included in the cell count. Cells (300-450) were counted per experiment and the ratio of category A cells to category B cells for each group is shown in FIG. 8. […]

Gsα [2] = experiment: Detergent extraction of Gsα from rat synaptic membrane after chronic antidepressant treatment; assay type: in vivo; settings: for GsαL in the Triton X-100 extract versus control / GsαL in the Triton X-114 extract versus control: rat synaptic membrane, 21 days treatment
Protocol: C6-2B cells (between passages 20 and 40) were grown in 175-cm^2 flasks in Dulbecco's modified Eagle medium, 4.5 g of glucose/L, 10% bovine serum, in a 10% CO2 atmosphere, at 37° C. for 3 days after splitting. […] Male Sprague-Dawley rats weighing 150-200 g were fed ad libitum and maintained in a 12-h light/dark cycle. […] 36:803-838, 1989]. […] Rat cerebral cortex membranes were prepared according to the method of Rasenick et al. [Nature, 294:560-562; 1981].
Membrane proteins were extracted sequentially from C6-2B or rat synaptic membranes as described [Yan et al., J. Neurochem., 66:1489-1495; 1996]. These membranes were stirred on ice in HEPES (15 mM, pH 7.4) containing 1% Triton X-100 for 60 min followed by centrifugation at 100,000 g for 60 min at 4° C. The supernatant was reserved (Triton X-100 extract), and the resulting pellet was resuspended in Tris (15 mM, pH 7.4) containing 1.4% Triton X-114 and 150 mM NaCl. The solution was stirred for 60 min at 4° C. and centrifuged for 30 min at 100,000 g in the cold. The supernatant was saved (Triton X-114 extract). These supernatants and remaining pellet (remainder) were subjected to sodium dodecyl sulfate (SDS)-polyacrylamide gel electophoresis (PAGE) using 10% gels. All of the extraction buffers contained 1 mM PMSF and 1 mM EGTA.
Rat cortex membrane, C6-2B cell membranes, or Triton extracts of each membrane preparation were subjected to SDS-PAGE followed by electrotransfer to polyvinylidene difluoride (PVDF) membrane. The PVDF membrane was incubated with a phosphate-buffered saline/Tween 20 Buffer (140 mM NaCl, […]. 0.1% Tween 20, pH 7.4) and 3% bovine serum albumin. The membrane was then incubated with polyclonal rabbit antisera against the various G protein subunits [RM (Gsα) or 116 (Gi1, Gi2, Gi3α)] at a 1:25,000 (RM) or 1:5,000 (116) dilution (see below for source of antibodies). […] Immunoreactivity was detected with an enhanced chemiluminescence (ECL) western blot detection system (Amersham) in accord with the manufacturer's instructions. The developed autoradiographs were analyzed by densitometry.
Rats were treated with antidepressant via intraperitoneal injection once daily for 21 days, control animals received an equal number and volume of injection of saline. Cerebral cortices from each group were removed. Rat synaptic membrane-enriched fractions were prepared (see Example 1). The ratios of the percentage of Gsα extracted by the two detergents in the treatment versus control groups were compared and are set forth in Table 3 as percentage of control (i.e., each Triton X-100 extract was compared with the untreated Triton X-100 extract, the same was comparison was undertaken for Triton X-114 extracts as well as the remainder). The values shown are means±standard error of the mean of 4-6 experiments.

Gsα [3] = experiment: Cellular localization of Gsα in C6-2B cells, immunofluorescence laser scanning confocal microscopy; assay type: cell-based
[4] = rat cerebral cortex synaptic membrane, 10 mg/kg i.p. once daily for 21 days, mean ± SEM of 4-6 experiments
[5] = 10 μM desipramine 3 days, individual cells D1-D4

Row | SMILES | Gsα immunofluorescence in cell processes and process tips (Gsα [1]; 10 μM, 3 days) | Cells displaying intense Gsα staining at the process tips (and processes) (Gsα [1]; 10 μM, 3 days) [%] | GsαL in Remainder, % of corresponding value in control group (Gsα [2]; [4]) | GsαL in Triton X-100 extract, % of corresponding value in control group (Gsα [2]; [4]) | GsαL in Triton X-114 extract, % of corresponding value in control group (Gsα [2]; [4]) | GsαS in Remainder, % of corresponding value in control group (Gsα [2]; [4]) | GsαS in Triton X-100 extract, % of corresponding value in control group (Gsα [2]; [4]) | GsαS in Triton X-114 extract, % of corresponding value in control group (Gsα [2]; [4]) | GsαL in the Triton X-100 extract versus control (Gsα [2]) | GsαL in the Triton X-114 extract versus control (Gsα [2]) | Intense Gsα staining at the process tips (Gsα [3]; 3 μM for five days) | Number of cells lacking Gsα in the process tips versus control (Gsα [3]; acute treatment, one day, 10 μM) | Decrease in Gsα localization to the processes and process tips, control versus treated cells (Gsα [1]; 10 μM desipramine 3 days) | Percentage of Gsα immunofluorescence distribution, Processes, Average (Gsα [1]; 10 μM desipramine 3 days, average of four cells, control 12.0 ± 5.7) [%] | Percentage of Gsα immunofluorescence distribution, Processes, Average (Gsα [1]; 10 μM desipramine 3 days, average of four cells, control 12.0 ± 5.7, listed as desipramine) [%] | Percentage of Gsα immunofluorescence distribution, Cell Body, Average (Gsα [1]; 10 μM desipramine 3 days, average of four cells, control 88.0 ± 5.7) [%] | Percentage of Gsα immunofluorescence distribution, Cell Body, single cells (Gsα [1]; [5]) | Percentage of Gsα immunofluorescence distribution, Processes, single cells (Gsα [1]; [5]) | Gsα in the cell body (Gsα [1]; 10 μM, 3 days)
1 | CNCCC(Oc1ccc(C(F)(F)F)cc1)c1ccccc1 (stereo not shown) [Fluoxetine, fluoxetine] | loss of staining in the processes and process tips; also recorded: drastic reduction | 45 | 53.8 ± 6.9^a % | 118.1 ± 3.4^a % | 81.9 ± 4.5^a % | 45.2 ± 8.4^a % | 153.8 ± 39.9% | 91.6 ± 6.3% | significant increase | concomitant decrease | – | – | – | – | – | – | – | – | –
2 | CNCCCN1c2ccccc2CCc2ccccc21 [Desipramine, desipramine] | drastically reduced; also recorded: decrease in the cell processes and process tips | 32 | – | 128.2 ± 9.5^a % | 77.3 ± 8.8^a % | 84.9 ± 25.7% | 146.4 ± 9.6^b % | 71.7 ± 6.8^a % | significant increase | concomitant decrease | do not | not significantly different from the control | three-fold decrease | 4.1 ± 4.7 | 4 | 95.9 ± 4.7 | 91.4% and 92.2% and 100.0% (2×) | 8.6% and 7.8% and 0.0% (2×) | increase
